EP4678643A1, “KRAS INHIBITOR COMPOUND, PHARMACEUTICAL COMPOSITION THEREOF, AND USE THEREOF” (Sunshine Lake Pharma Co., Ltd., priority 2023, dated 2024)
Where two headings read alike, the source gives them in different places.

Legend:
[1] = test system: pERK in H358 cells (KRAS p.G12C); experiment: Inhibitory effect on intracellular pERK by In-Cell Western assay, H358; assay type: cell-based; conditions: Homo sapiens, NCI-H358, pERK inhibition, compound incubation 3 h
Description: (§1) 1. Determination of Inhibitory Effect on Intracellular pERK by In-Cell Western Assay
(§2) (1) On the first day, the following cells were revived and cultured with the corresponding culture medium and incubated at 37 °C, 5% CO2 until confluence.
(§3) (2) On the third day, the culture medium was removed, the cells were rinsed once with DPBS, 2 mL of TrypLE™ trypsin was added for digestion, and the cells were placed at room temperature until the cells detached. (3) 5 mL fresh culture medium was added to resuspend cells to terminate the digestion, and the cells were gently pipetted and centrifuged at 1000 rpm for 5 minutes at room temperature. (4) The supernatant was removed, and 5 mL fresh culture medium was added to resuspend the cells and count cells. (5) The cells were plated in a 384-well plate with appropriate cell concentration by adjusting with complete culture medium and incubated at 37 °C, 5% CO2 for overnight. (6) 200 nL of the prepared serial dilution compound (DMSO final concentration was 0.5%) was added and incubated at 37 °C, CO2 for 3 h (HPAC cell lines for 1 h). (7) The cells were fixed. (8) The cells were washed twice with PBS. (9) The blocking solution was added and the cells were incubated at room temperature for 1 h. (10) The blocking solution was removed, and the primary antibody (phospho-ERK Rabbit mAb + GAPDH (D4C6R) Mouse mAb) was added and the cells were incubated at 4 °C for overnight. (11) The cells were washed twice with PBST (PBS + 0.05% Tween 20) for 2 minutes each time. (12) PBST was removed and secondary antibody (IRDye 800CW Goat anti-Rabbit IgG (H+L) + IRDye 680RD Goat anti Mouse IgG (H+L)) was added and incubated away from light at room temperature. (14) Secondary antibody was discarded and the cell was washed twice with PBST, 2 minutes each time. (15) 384-well plate was inverted and centrifuged at 1000 rpm at room temperature for 1 minute, and the 384-well plate was scanned with Odyssey CLx. (16) Data analysis: • a) Assay stability check was peformed by using DMSO and reference control data: [formula] [formula] • b) nonlinear fitting of Compound IC50: Y = Bottom + (Top−Bottom)/(1+10^(∧)((LogIC50−X)×HillSlope)). [formula]

[2] = test system: pERK in MKN1 cells (KRAS WTdep); experiment: Inhibitory effect on intracellular pERK by In-Cell Western assay, MKN1; assay type: cell-based; conditions: Homo sapiens, MKN-1, pERK inhibition, compound incubation 3 h
Description: as §1, §2, §3

[3] = test system: pERK in HPAC cells (KRAS p.G12D); experiment: Inhibitory effect on intracellular pERK by In-Cell Western assay, HPAC; assay type: cell-based; conditions: Homo sapiens, pERK inhibition, compound incubation 1 h, read-out: HPAC, IC50 (nM) KRASp.G12D
Description: as §1, §2
as §3, with “[formula] • b) nonlinear fitting of Compound IC50: Y = Bottom + (Top−Bottom)/(1+10^(∧)((LogIC50−X)×HillSlope)). [formula]” left out

[4] = test system: pERK in NCI-H727 cells (KRAS p.G12V); experiment: Inhibitory effect on intracellular pERK by In-Cell Western assay, NCI-H727; assay type: cell-based; conditions: Homo sapiens, pERK inhibition, compound incubation 3 h
Description: as §1, §2
as §3, with “[formula] • b) nonlinear fitting of Compound IC50: Y = Bottom + (Top−Bottom)/(1+10^(∧)((LogIC50−X)×HillSlope)). [formula]” left out

[5] = test system: pERK in AGS cells (KRAS G12D); experiment: Inhibitory effect on intracellular pERK by In-Cell Western assay, AGS; assay type: cell-based; conditions: pERK inhibition, compound incubation 3 h, read-out: AGS, IC50 (nM) KRAS p.G12D
Description: as §1, §2
as §3, with “CLx.” for “CLx. (16) Data analysis: • a) Assay stability check was peformed by using DMSO and reference control data: [formula] [formula] • b) nonlinear fitting of Compound IC50: Y = Bottom + (Top−Bottom)/(1+10^(∧)((LogIC50−X)×HillSlope)). [formula]”

KRAS G12D-GTP & cRAF = KRAS G12D-GTP & cRAF (Homo sapiens, UniProt P01116, G12D); experiment: KRAS G12D/cRAF Binding Assay (HTRF); conditions: competitive binding, 665/615 nm ratio
Chain of KRAS G12D-GTP & cRAF (P01116 1-188 isoform P01116-2 G12D): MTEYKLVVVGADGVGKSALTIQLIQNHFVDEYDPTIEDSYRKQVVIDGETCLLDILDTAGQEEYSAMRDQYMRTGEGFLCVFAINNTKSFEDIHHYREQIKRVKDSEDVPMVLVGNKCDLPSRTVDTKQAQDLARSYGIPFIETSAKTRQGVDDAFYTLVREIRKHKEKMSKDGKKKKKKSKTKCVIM
Description: 2. KRAS G12D/cRAF Binding Assay

KRAS G12D-GTP & SOS1 = KRAS G12D-GTP & SOS1 (Homo sapiens, UniProt P01116, G12D); experiment: KRAS G12D/SOS1 Binding Assay (HTRF); conditions: competitive binding, 665/615 nm ratio
Chain of KRAS G12D-GTP & SOS1 (P01116 1-188 isoform P01116-2 G12D): as above
Description: 3. KRAS G12D/SOS1 Binding Assay

[6] = test system: pERK in A549 cells (KRAS p.G12S); experiment: Inhibitory effect on intracellular pERK by In-Cell Western assay, A549; assay type: cell-based; conditions: Homo sapiens, pERK inhibition, compound incubation 3 h
Description: as §1, §2, §3

[7] = test system: pERK in HCT 116 cells (KRAS p.G13D); experiment: Inhibitory effect on intracellular pERK by In-Cell Western assay, HCT 116; assay type: cell-based; conditions: Homo sapiens, pERK inhibition, compound incubation 3 h
Description: as §1, §2, §3

[8] = mouse, in vivo
Description: Pharmacokinetic evaluation of the compounds of the present invention by intravenous injection or oral gavage in mice
The inventors conducted a pharmacokinetic evaluation of the compounds of this invention in mice.
The compounds of the present invention were administered to test animals in the form of a solution of 5% DMSO + 30% PEG400 + 65% saline, 10% DMSO + 10% Kolliphor HS15 + 80% Saline, 10% DMSO + 89% (25% SBE-B-CD) + (2% HCl), 20% PEG400 + 80% sterile water for injection, or 10% DMA + 10% HS15 + 30% PEG400 + 50% sterile water for injection. The animals were fasted for 12 hours before administration and had free access to water. For the intravenous administration group, the dose was 2 mg/kg/day, qd. Venous blood samples (approximately 0.15 mL) were collected at the following time points after administration: 0.083, 0.25, 0.5, 1.0, 2.0, 5.0, 7.0 and 24 hours. EDTA-K2 was pre-added to the blood collection tube as an anticoagulant. Blood samples were centrifuged at 12,000 rpm for 2 minutes, and plasma was collected and stored at -20°C or -70°C. For the intravenous administration group, the dose was 5 mg/kg/day, qd. Venous blood samples (approximately 0.15 mL) were collected at the following time points after administration: 0.25, 0.5, 1.0, 2.0, 5.0, 7.0 and 24 hours. EDTA-K2 was pre-added to the blood collection tube as an anticoagulant. Blood samples were centrifuged at 12,000 rpm for 2 minutes, and plasma was collected and stored at -20°C or -70°C.
The collected plasma samples were processed (frozen plasma was thawed at room temperature and vortexed for 15 seconds. 10-20 µL of plasma was added to 120-150 µL of acetonitrile solution containing the internal standard and vortexed for 5 minutes. The sample was centrifuged at 4,000 rpm for 5 minutes. 100 µL of the supernatant was added to 120-150 µL of methanol/water (v/v = 1/1) and mixed). The concentrations of the compounds in the plasma were analyzed by LC-MS/MS.

Row | Compound | IC50 [1] | IC50 [2] | IC50 [3] | IC50 [4] | IC50 ([5]; Homo sapiens, AGS, 3 h) | IC50 (KRAS G12D-GTP & cRAF) | IC50 (KRAS G12D-GTP & SOS1) | IC50 [6] | IC50 [7] | IC50 [5] | pharmacokinetic properties in mice [8]
1 | CC#Cc1nc(-c2cc(O)cc3ccc(F)c(CC)c23)c(F)c2nc(OCC34CCCN3CC(F)C4)nc(N3CCCOCC3)c12 (centres unmarked) [Compound 2] | 2 nM | 6.4 nM | 1.6 nM | 4.8 nM | 2.2 nM | 13.7 nM | 20.8 nM |  |  |  | 
2 | C#Cc1c(F)ccc2cc(O)cc(-c3nc(C#CC)c4c(N5CCCOCC5)nc(OCC56CCCN5CC(F)C6)nc4c3F)c12 (centres unmarked) [Compound 1] | 0.4 nM | 1.9 nM | 0.3 nM | 1 nM |  | 7.9 nM | 16.3 nM | 0.6 nM | 2.1 nM | 0.2 nM | good pharmacokinetic properties
